{"source": "patent US11944662B2", "about": "“Methods and compositions for preventing or treating ophthalmic conditions” (Stealth BioTherapeutics Inc., priority 2009, dated 2024)", "key": {"HTM cells [1]": {"test_system": "HTM cells", "settings": "n=4", "description": "(§1) FIG. 37 is a graph showing the fluorescence intensity of ROS of GTM and HTM cells in control and SS-31-treated groups, as measured using FACS analysis."}, "GTM cells [2]": {"test_system": "GTM cells", "settings": "n=3", "description": "as §1"}, "[3]": {"test_system": "primary human retinal pigment epithelial (RPE) cells", "settings": "different concentrations, 24 h", "quoted_text": "Primary cultured human RPE cells were incubated with different concentrations of SS-31 alone for a period of 24 h, and cell viability was determined by a MTT assay (FIG. 22)."}, "HTM cells [4]": {"test_system": "HTM cells", "settings": "n=4", "remark": "listed apart in the source", "excerpt": "(§4) The effects of SS-31 at mitigating acute oxidative injury in GTM and HTM cells was investigated."}, "HRECs": {"test_system": "HRECs", "experiment": "Survival of HRECs in high glucose, Annexin V/PI flow cytometry", "type": "cell-based, human", "settings": "24 hours after treatment", "procedure": "FIGS. 1A and 1B show the effects of different concentrations of SS-31 (10 nM, 100 nM, 1 μM and 10 μM) used as co-treatment with 30 mM glucose (HG). […] FIG. 1B is a graphic representation of the survival ratio for HRECs.\nSee generally, Li B, Tang S B, Zhang G, Chen J H, Li B J. Culture and characterization of human retinal capillary endothelial cell. Chin Ophthal Res 2005; 23: 20-2; Premanand C, Rema M, Sameer M Z, Sujatha M, Balasubramanyam M. Effect of curcumin on proliferation of human retinal endothelial cells under in vitro conditions. Invest Ophthalmol Vis Sci 2006; 47: 2179-84.\nBriefly, HREC cells were divided into three groups: a normal control group; a group administered 30 mM glucose; and a group administered 30 mM glucose+SS-31. Survival of HRECs in high glucose co-treated with different concentrations of SS-31 (10 nM, 100 nM, 1 μM, 10 μM) was measured using an Annexin V+PI assay and flow cytometry. See generally, Koopman, G., Reutelingsperger, C. P., Kuijten, G. A. M., Keehnen, R. M. J., Pals, S. T., and van Oers, M. H. J. 1994. Annexin V for flow cytometric detection of phosphatidylserine expression on B cells undergoing apoptosis. Blood 84: 1415; Homburg, C. H., de Haas, M., von dem Borne, A. E., Verhoeven, A. J., Reutelingsperger, C. P., and Roos, D. 1995. Human neutrophils lose their surface Fc gamma Rill and acquire Annexin V binding sites during apoptosis in vitro. Blood 85: 532; Vermes, I., Haanen, C., Steffens-Nakken, H., and Reutelingsperger, C. 1995. A novel assay for apoptosis-flow cytometric detection of phosphatidylserine expression on early apoptotic cells using fluorescein labelled Annexin V. J. Immunol. Meth. 184: 39; Fadok, V. A., Voelker, D. R., Campbell, P. A., Cohen, J. J., Bratton, D. L., and Henson, P. M. 1992. Exposure of phosphatidylserine on the surface of apoptotic lymphocytes triggers specific recognition and removal by macrophages. J. Immunol. 148: 2207.\nThe survival of HRECs in high glucose co-treated with SS-31 was tested at 24 h and 48 h."}, "GTM cells [5]": {"test_system": "GTM cells", "settings": "n=4", "excerpt": "as §4"}, "[6]": {"test_system": "trabecular meshwork cells from glaucoma patients (GTM)", "procedure": "(§2) To assess whether SS-31 had cytotoxic effects of HTM or GTM cells, various concentrations of SS-31 were administered to cells and the cytotoxicity was measured using an LDH assay. A LDH cytotoxicity assay is a colorimetric method of assaying cellular cytotoxicity. The assay quantitatively measures the stable, cytosolic, lactate dehydrogenase (LDH) enzyme, which is released from damaged cells. The released LDH is measured with a coupled enzymatic reaction that results in the conversion of a tetrazolium salt (iodonitrotetrazolium (INT)) into a red color formazan by diaphorase. […] See generally, Haslam, G. et al. (2005) Anal. Biochem. 336: 187; Tarnawski, A. (2005) Biochem. Biophys. Res. Comm. 333: 207; Round, J. L et al. (2005) J. Exp. Med. 201: 419; Bose, C. et al. (2005) Am. J. Physiol. Gastr. L. 289: G926; Chen, A. and Xu, J. (2005) Am. J. Physiol. Gastr. L. 288: G447. The LDH activity is determined as NADH oxidation or INT reduction over a defined time period."}, "[7]": {"test_system": "trabecular meshwork cells from non-diseased individuals (HTM)", "procedure": "as §2"}, "lenses of diabetic rats [8]": {"test_system": "lenses of diabetic rats", "experiment": "Cataract formation in lenses, STZ diabetic rat model", "type": "in vivo, Sprague-Dawley rat", "settings": "10 mg (Table 9: 10 mg/kg s.c.)", "procedure": "(§3) A rat model of diabetes was established by combination of 6-week HFD and low dose of STZ (30 mg/kg) injection or a single high dose of STZ (65 mg/kg) in SD rats. See generally, K. Srinivasan, B. Viswanad, Lydia Asrat, C. L. Kaul and P. Ramarao, Combination of high-fat diet-fed and low-dose streptozotocin-treated rat: A model for type 2 diabetes and pharmacological screening, Pharmacological Research, 52(4): 313-320, 2005. Rats of the same batch fed with normal chow (NRC) were used as a control."}, "[9]": {"test_system": "inner blood-retinal barrier", "experiment": "Inner blood-retinal barrier function, Evans blue extravasation, diabetic rats", "type": "in vivo, Sprague-Dawley rat", "settings": "compared to rats on a HFD not administered SS-20 or SS-31", "description": "FIGS. 10A-10B is a series of charts showing the integrity of the blood-retinal barrier of normal rats (NRC), diabetic rats, and diabetic rats treated with SS-20 or SS-31, as analyzed by Evans blue extravasation. (10A) diabetes induced by STZ; (10B) diabetes induced by HFD/STZ.\nThe effect of the aromatic-cationic peptides on the inner blood-retinal barrier function in the SD rat model was investigated."}, "lenses of diabetic rats [10]": {"test_system": "lenses of diabetic rats", "experiment": "Cataract formation in lenses, HFD/STZ diabetic rat model", "type": "in vivo, Sprague-Dawley rat", "settings": "for Percentage of opacity (%) / Percentage of severe opacity (%) / Turbidity degree ++++ (count) / Turbidity degree +++ (count) / Turbidity degree ++ (count) / Turbidity degree + (count) / Turbidity degree − (count): HFD/STZ rat model; for Turbidity degree ++++ (count): ++++: severely opaque; for Turbidity degree +++ (count): +++: moderately opaque; for Turbidity degree ++ (count): ++: opaque; for Turbidity degree + (count): +: mildly opaque; for Turbidity degree − (count): −: transparent", "procedure": "The example describes the results of such experiments.\nas §3"}}, "note": "Read-outs that look alike come from different tables or passages of the source. Where a SMILES comes first, the peptide text is derived from it. Where no end group is shown, it is not given here. [ ]: non-standard residue; d: D form. Dmt = Cc1cc(O)cc(C)c1C[C@H](N)C(=O)O", "data": [{"molecule": "Cc1cc(O)cc(C)c1C[C@H](NC(=O)[C@H](N)CCCNC(=N)N)C(=O)N[C@@H](CCCCN)C(=O)N[C@@H](Cc1ccccc1)C(N)=O", "note": "[SS-31, D-Arg-2′,6′-Dmt-Lys-Phe-NH2] (H-[dR][Dmt]KF-NH2)", "values": [{"measurement": "percentage of intracellular ROS production, HTM groups", "setting": "HTM cells [1]; H2O2 + SS-31 10^−6 M", "value": "79±2.39", "unit": "%"}, {"measurement": "percentage of intracellular ROS production, HTM groups", "setting": "HTM cells [1]; H2O2 + SS-31 10^−7 M", "value": "91.8±3.49", "unit": "%"}, {"measurement": "percentage of intracellular ROS production, HTM groups", "setting": "HTM cells [1]; H2O2 + SS-31 10^−8 M", "value": "129.0±8.24", "unit": "%"}, {"measurement": "percentage of intracellular ROS production compared to GTM control", "setting": "GTM cells [2]; H2O2 + SS-31 10^−6 M", "value": "84.5±8.75", "unit": "%"}, {"measurement": "percentage of intracellular ROS production compared to GTM control", "setting": "GTM cells [2]; H2O2 + SS-31 10^−7 M", "value": "102.0±5.69", "unit": "%"}, {"measurement": "percentage of intracellular ROS production compared to GTM control", "setting": "GTM cells [2]; H2O2 + SS-31 10^−8 M", "value": "133.0±5.17", "unit": "%"}, {"measurement": "cell viability (MTT assay), SS-31 alone", "setting": "[3]", "value": "did not adversely effect"}, {"measurement": "percentage of fluorescence intensity of TMRM, HTM groups", "setting": "HTM cells [4]; H2O2 + SS-31 10^−6 M", "value": "57.7±1.80", "unit": "%"}, {"measurement": "percentage of fluorescence intensity of TMRM, HTM groups", "setting": "HTM cells [4]; H2O2 + SS-31 10^−7 M", "value": "50.6±3.06", "unit": "%"}, {"measurement": "percentage of fluorescence intensity of TMRM, HTM groups", "setting": "HTM cells [4]; H2O2 + SS-31 10^−8 M", "value": "49.4±2.27", "unit": "%"}, {"measurement": "survival ratios for HRECs (Q3)", "setting": "HRECs; 30 mM glucose + SS-31 10 nM", "value": 84.3, "unit": "%"}, {"measurement": "survival ratios for HRECs (Q3)", "setting": "HRECs; 30 mM glucose + SS-31 100 nM", "value": 90.7, "unit": "%"}, {"measurement": "survival ratios for HRECs (Q3)", "setting": "HRECs; 30 mM glucose + SS-31 1 μM", "value": 92.8, "unit": "%"}, {"measurement": "survival ratios for HRECs (Q3)", "setting": "HRECs; 30 mM glucose + SS-31 10 μM", "value": 94.3, "unit": "%"}, {"measurement": "percentage of fluorescence intensity of TMRM compared to GTM control", "setting": "GTM cells [5]; H2O2 + SS-31 10^−6 M", "value": "56.2±4.04", "unit": "%"}, {"measurement": "percentage of fluorescence intensity of TMRM compared to GTM control", "setting": "GTM cells [5]; H2O2 + SS-31 10^−7 M", "value": "50.3±4.46", "unit": "%"}, {"measurement": "percentage of fluorescence intensity of TMRM compared to GTM control", "setting": "GTM cells [5]; H2O2 + SS-31 10^−8 M", "value": "47.5±2.82", "unit": "%"}, {"measurement": "cytotoxicity", "setting": "[6]; at 10^−3 M", "value": "no cytotoxicity"}, {"measurement": "viability (LDH cytotoxicity assay)", "setting": "[6]; various concentrations", "value": "does not affect the viability"}, {"measurement": "cytotoxicity", "setting": "[7]; at 10^−3 M", "value": "no cytotoxicity"}, {"measurement": "viability (LDH cytotoxicity assay)", "setting": "[7]; various concentrations", "value": "does not affect the viability"}]}, {"molecule": "F[dR]FK-NH2 [SS-20]", "values": [{"measurement": "Percentage of opacity (%)", "setting": "lenses of diabetic rats [8]", "value": 60.0, "unit": "%"}, {"measurement": "Percentage of severe opacity (%)", "setting": "lenses of diabetic rats [8]", "value": 20.0, "unit": "%"}, {"measurement": "Opacity degree ++++ (count)", "setting": "lenses of diabetic rats [8]; ++++: severely opaque", "value": 1}, {"measurement": "Opacity degree +++ (count)", "setting": "lenses of diabetic rats [8]; +++: moderately opaque", "value": 0}, {"measurement": "Opacity degree ++ (count)", "setting": "lenses of diabetic rats [8]; ++: opaque", "value": 2}, {"measurement": "Opacity degree + (count)", "setting": "lenses of diabetic rats [8]; +: mildly opaque", "value": 0}, {"measurement": "Opacity degree − (count)", "setting": "lenses of diabetic rats [8]; −: transparent", "value": 2}, {"measurement": "inner blood-retinal barrier function", "setting": "[9]", "value": "improved"}, {"measurement": "cataract formation in the lenses of diabetic rats", "setting": "lenses of diabetic rats [10]; HFD/STZ and STZ models (FIGS. 6 and 7, Tables 11 and 12)", "value": "prevention or reversal of cataract formation"}, {"measurement": "Percentage of opacity (%)", "setting": "lenses of diabetic rats [10]; 3 mg (Table 7: 3 mg/kg s.c.)", "value": 75.0, "unit": "%"}, {"measurement": "Percentage of severe opacity (%)", "setting": "lenses of diabetic rats [10]; 3 mg (Table 7: 3 mg/kg s.c.)", "value": 25.0, "unit": "%"}, {"measurement": "Turbidity degree ++++ (count)", "setting": "lenses of diabetic rats [10]; 3 mg (Table 7: 3 mg/kg s.c.)", "value": 1}, {"measurement": "Turbidity degree +++ (count)", "setting": "lenses of diabetic rats [10]; 3 mg (Table 7: 3 mg/kg s.c.)", "value": 0}, {"measurement": "Turbidity degree ++ (count)", "setting": "lenses of diabetic rats [10]; 3 mg (Table 7: 3 mg/kg s.c.)", "value": 1}, {"measurement": "Turbidity degree + (count)", "setting": "lenses of diabetic rats [10]; 3 mg (Table 7: 3 mg/kg s.c.)", "value": 1}, {"measurement": "Turbidity degree − (count)", "setting": "lenses of diabetic rats [10]; 3 mg (Table 7: 3 mg/kg s.c.)", "value": 1}, {"measurement": "Percentage of opacity (%)", "setting": "lenses of diabetic rats [10]; 10 mg (Table 7: 10 mg/kg s.c.)", "value": 75.0, "unit": "%"}, {"measurement": "Percentage of severe opacity (%)", "setting": "lenses of diabetic rats [10]; 10 mg (Table 7: 10 mg/kg s.c.)", "value": 0, "unit": "%"}, {"measurement": "Turbidity degree ++++ (count)", "setting": "lenses of diabetic rats [10]; 10 mg (Table 7: 10 mg/kg s.c.)", "value": 0}, {"measurement": "Turbidity degree +++ (count)", "setting": "lenses of diabetic rats [10]; 10 mg (Table 7: 10 mg/kg s.c.)", "value": 0}, {"measurement": "Turbidity degree ++ (count)", "setting": "lenses of diabetic rats [10]; 10 mg (Table 7: 10 mg/kg s.c.)", "value": 1}, {"measurement": "Turbidity degree + (count)", "setting": "lenses of diabetic rats [10]; 10 mg (Table 7: 10 mg/kg s.c.)", "value": 2}, {"measurement": "Turbidity degree − (count)", "setting": "lenses of diabetic rats [10]; 10 mg (Table 7: 10 mg/kg s.c.)", "value": 1}]}]}
